In PubChem BioAssay AID2060622 (Molecular Pharmacology Branch, DTP, NCI, 2025):

System: 242566-281-R-J2-PDC complex spheroid viability
Experiment: Anticancer human tumor 242566-281-R-J2-PDC patient-derived pancreatic carcinoma cell line growth inhibition [CLK]
Conditions: for IC50: curve of first compound; for viability, T/C: stronger effect = lower value
Outline: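 Multi-cell-type spheroids combined patient-derived tumor cells with HUVEC endothelial cells and human mesenchymal stem cells. Paired agents were dosed in half-log steps down from about clinical Cmax, or from 10 microM where Cmax was unknown.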

[1] = second compound 0.0316 µM, first compound 0.0316 µM
[2] = second compound 0.0316 µM, first compound 0.1 µM
[3] = second compound 0.0316 µM, first compound 0.316 µM
[4] = second compound 0.0316 µM, first compound 1 µM
[5] = second compound 0.0316 µM, first compound 3.16 µM
[6] = second compound 0.0316 µM, first compound 10 µM
[7] = second compound 0.1 µM, first compound 0.0316 µM
[8] = second compound 0.1 µM, first compound 0.1 µM
[9] = second compound 0.1 µM, first compound 0.316 µM
[10] = second compound 0.1 µM, first compound 1 µM
[11] = second compound 0.1 µM, first compound 3.16 µM
[12] = second compound 0.1 µM, first compound 10 µM
[13] = second compound 0.316 µM, first compound 0.0316 µM
[14] = second compound 0.316 µM, first compound 0.1 µM
[15] = second compound 0.316 µM, first compound 0.316 µM
[16] = second compound 0.316 µM, first compound 1 µM
[17] = second compound 0.316 µM, first compound 3.16 µM
[18] = second compound 0.316 µM, first compound 10 µM
[19] = second compound 1 µM, first compound 0.0316 µM
[20] = second compound 1 µM, first compound 0.1 µM
[21] = second compound 1 µM, first compound 0.316 µM
[22] = second compound 1 µM, first compound 1 µM
[23] = second compound 1 µM, first compound 3.16 µM
[24] = second compound 1 µM, first compound 10 µM
[25] = second compound 3.16 µM, first compound 0.0316 µM
[26] = second compound 3.16 µM, first compound 0.1 µM
[27] = second compound 3.16 µM, first compound 0.316 µM
[28] = second compound 3.16 µM, first compound 1 µM
[29] = second compound 3.16 µM, first compound 3.16 µM
[30] = second compound 3.16 µM, first compound 10 µM
[31] = second compound 10 µM, first compound 0.0316 µM
[32] = second compound 10 µM, first compound 0.1 µM
[33] = second compound 10 µM, first compound 0.316 µM
[34] = second compound 10 µM, first compound 1 µM
[35] = second compound 10 µM, first compound 3.16 µM
[36] = second compound 10 µM, first compound 10 µM
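Note: spheroids exposed to compounds for 7 days before readout.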
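Throughout, for viability, T/C: 100% = DMSO vehicle control wells.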

## CC(=O)O[C@H]1C(=O)[C@@]2(C)[C@H]([C@H](OC(=O)c3ccccc3)[C@]3(O)C[C@H](OC(=O)[C@H](O)[C@@H](NC(=O)c4ccccc4)c4ccccc4)C(C)=C1C3(C)C)[C@]1(OC(C)=O)CO[C@@H]1C[C@@H]2O + CN1CCN(c2cc(C(=O)Nc3cc4cc(-c5cnn(C)c5)ccc4cn3)ccn2)CC1
Second compound 0.0316 µM
  IC50: < 31.6 nM
Second compound 0.1 µM
  IC50: < 31.6 nM
Second compound 0.316 µM
  IC50: < 31.6 nM
Second compound 1 µM
  IC50: < 31.6 nM
Second compound 3.16 µM
  IC50: < 31.6 nM
Second compound 10 µM
  IC50: < 31.6 nM
[1]
  viability, T/C: 37%
[2]
  viability, T/C: 33.4%
[3]
  viability, T/C: 28.9%
[4]
  viability, T/C: 26.7%
[5]
  viability, T/C: 32.2%
[6]
  viability, T/C: 34.8%
[7]
  viability, T/C: 43.7%
[8]
  viability, T/C: 29.1%
[9]
  viability, T/C: 27.7%
[10]
  viability, T/C: 25.2%
[11]
  viability, T/C: 29.1%
[12]
  viability, T/C: 28.6%
[13]
  viability, T/C: 15.9%
[14]
  viability, T/C: 15.5%
[15]
  viability, T/C: 15.1%
[16]
  viability, T/C: 17.2%
[17]
  viability, T/C: 25%
[18]
  viability, T/C: 31.3%
[19]
  viability, T/C: 5.85%
[20]
  viability, T/C: 4.53%
[21]
  viability, T/C: 5.01%
[22]
  viability, T/C: 4.32%
[23]
  viability, T/C: 5.32%
[24]
  viability, T/C: 5.54%
[25]
  viability, T/C: 7.09%
[26]
  viability, T/C: 7.07%
[27]
  viability, T/C: 7.24%
[28]
  viability, T/C: 7.25%
[29]
  viability, T/C: 7.67%
[30]
  viability, T/C: 7.22%
[31]
  viability, T/C: 1.45%
[32]
  viability, T/C: 1.31%
[33]
  viability, T/C: 1%
[34]
  viability, T/C: 1.28%
[35]
  viability, T/C: 1.57%
[36]
  viability, T/C: 1.05%

## CCc1c2c(nc3ccc(O)cc13)-c1cc3c(c(=O)n1C2)COC(=O)[C@]3(O)CC + CN1CCN(c2cc(C(=O)Nc3cc4cc(-c5cnn(C)c5)ccc4cn3)ccn2)CC1
Second compound 0.0316 µM
  IC50: 8.95 nM
Second compound 0.1 µM
  IC50: 4.12 nM
Second compound 0.316 µM
  IC50: < 3.16 nM
Second compound 1 µM
  IC50: < 3.16 nM
Second compound 3.16 µM
  IC50: < 3.16 nM
Second compound 10 µM
  IC50: < 3.16 nM
Second compound 0.0316 µM, first compound 0.00316 µM
  viability, T/C: 75.4%
Second compound 0.0316 µM, first compound 0.01 µM
  viability, T/C: 47.6%
[1]
  viability, T/C: 17.3%
[2]
  viability, T/C: 8.08%
[3]
  viability, T/C: 4.41%
[4]
  viability, T/C: 2.2%
Second compound 0.1 µM, first compound 0.00316 µM
  viability, T/C: 57%
Second compound 0.1 µM, first compound 0.01 µM
  viability, T/C: 26.9%
[7]
  viability, T/C: 9.57%
[8]
  viability, T/C: 5.51%
[9]
  viability, T/C: 3.73%
[10]
  viability, T/C: 1.87%
Second compound 0.316 µM, first compound 0.00316 µM
  viability, T/C: 13.3%
Second compound 0.316 µM, first compound 0.01 µM
  viability, T/C: 7.58%
[13]
  viability, T/C: 4.52%
[14]
  viability, T/C: 2.86%
[15]
  viability, T/C: 1.79%
[16]
  viability, T/C: 1.15%
Second compound 1 µM, first compound 0.00316 µM
  viability, T/C: 3.62%
Second compound 1 µM, first compound 0.01 µM
  viability, T/C: 3.2%
[19]
  viability, T/C: 2.53%
[20]
  viability, T/C: 2.3%
[21]
  viability, T/C: 1.39%
[22]
  viability, T/C: 1.39%
Second compound 3.16 µM, first compound 0.00316 µM
  viability, T/C: 5.73%
Second compound 3.16 µM, first compound 0.01 µM
  viability, T/C: 5.04%
[25]
  viability, T/C: 3.5%
[26]
  viability, T/C: 3.24%
[27]
  viability, T/C: 2.82%
[28]
  viability, T/C: 1.82%
Second compound 10 µM, first compound 0.00316 µM
  viability, T/C: 1.17%
Second compound 10 µM, first compound 0.01 µM
  viability, T/C: 0.88%
[31]
  viability, T/C: 0.45%
[32]
  viability, T/C: 0.5%
[33]
  viability, T/C: 0.49%
[34]
  viability, T/C: 0.31%

## COc1cccc2c1C(=O)c1c(O)c3c(c(O)c1C2=O)CC(O)(C(=O)CO)CC3OC1CC(N)C(O)C(C)O1 (stereo unspecified) + CN1CCN(c2cc(C(=O)Nc3cc4cc(-c5cnn(C)c5)ccc4cn3)ccn2)CC1
Second compound 0.0316 µM
  IC50: 55 nM
Second compound 0.1 µM
  IC50: 50 nM
Second compound 0.316 µM
  IC50: < 31.6 nM
Second compound 1 µM
  IC50: < 31.6 nM
Second compound 3.16 µM
  IC50: < 31.6 nM
Second compound 10 µM
  IC50: < 31.6 nM
[1]
  viability, T/C: 67%
[2]
  viability, T/C: 31.7%
[3]
  viability, T/C: 8.7%
[4]
  viability, T/C: 4.2%
[5]
  viability, T/C: 1.44%
[6]
  viability, T/C: 2.53%
[7]
  viability, T/C: 66.5%
[8]
  viability, T/C: 25.1%
[9]
  viability, T/C: 5.6%
[10]
  viability, T/C: 2.26%
[11]
  viability, T/C: 1.22%
[12]
  viability, T/C: 1.37%
[13]
  viability, T/C: 26.1%
[14]
  viability, T/C: 7.56%
[15]
  viability, T/C: 1.25%
[16]
  viability, T/C: 1.1%
[17]
  viability, T/C: 1.58%
[18]
  viability, T/C: 1.58%
[19]
  viability, T/C: 4.67%
[20]
  viability, T/C: 4.62%
[21]
  viability, T/C: 2.83%
[22]
  viability, T/C: 3.28%
[23]
  viability, T/C: 2.48%
[24]
  viability, T/C: 2.27%
[25]
  viability, T/C: 6.53%
[26]
  viability, T/C: 5.78%
[27]
  viability, T/C: 5.19%
[28]
  viability, T/C: 3.29%
[29]
  viability, T/C: 2.58%
[30]
  viability, T/C: 1.42%
[31]
  viability, T/C: 1.13%
[32]
  viability, T/C: 1.22%
[33]
  viability, T/C: 0.74%
[34]
  viability, T/C: 0.66%
[35]
  viability, T/C: 0.57%
[36]
  viability, T/C: 0.17%
